Experiments:
Immunoglobulin A (IgA) = test: IgA ELISA in bronchoalveolar lavage fluid of aged mice; type: in vivo, mouse; details: aged C57BL/6 mice, 25 mg/kg p.o. each substance, 90 days
Experimental: The experiments were performed in old C57b1/6 mice (28-30 weeks). Table 1 discloses the groups of mice used for the experimentation. C57BL/6 mice were bred and naturally aged in a pathogen-free colony. Mice were group-housed six per cage for the treatment regimen and maintained on a 12-hr light-dark schedule with ad libitum access to food and water. All experiments were designed according to the principles of animal use for gerontological research (Miller, R. A., & Nadon, N. L. (2000). Principles of animal use for gerontological research. Journals of Gerontology. Series A, Biological Sciences and Medical Sciences, 55, B117-B123) [table] The above test substances were administered to the mice for a period of 90 days. Rapamycin was used as a positive control. After 90 days of administration experiments were performed to assess the respiratory muscle function, anatomical changes, cellular senescence and immunological changes. Bronchoalveolar lavage (BAL) fluids in healthy older subjects have consistently shown an increased proportion of neutrophils and lower percentage of macrophages compared with younger adults. There is age-associated decline in immunoglobins IgA and IgM. […] Immunoglobulin A (IgA) is the most abundant Ig in mucosac where it plays key roles in host defense against pathogens and in mucosal immunoregulation. […]

old C57b1/6 mice = test: Transdiaphragmatic pressure (Pdimax) in aged mice; type: in vivo, mouse; details: aged C57BL/6 mice, anesthetized, eupnoea, 25 mg/kg p.o. each substance, 90 days
Experimental: The experiments were performed in old C57b1/6 mice (28-30 weeks). Table 1 discloses the groups of mice used for the experimentation. C57BL/6 mice were bred and naturally aged in a pathogen-free colony. Mice were group-housed six per cage for the treatment regimen and maintained on a 12-hr light-dark schedule with ad libitum access to food and water. All experiments were designed according to the principles of animal use for gerontological research (Miller, R. A., & Nadon, N. L. (2000). Principles of animal use for gerontological research. Journals of Gerontology. Series A, Biological Sciences and Medical Sciences, 55, B117-B123) [table] […] The respiratory muscle function in the study animals was assessed by estimating the Tidal Volume, Minute ventilation, Transdiaphragmatic pressure ([…]) and Respiratory rate. […] Anesthetized mice were monitored continually for temperature, oxygen saturation, and heart rate. Palpebral reflex and pain response were monitored to ensure depth of anaesthesia. […] Spontaneous ventilation was maintained, the abdomen was bound, and Pdi was recorded using solid-state pressure catheters. […] The pressure data were collected using a PowerLab 8/35 data-acquisition system and analyzed using LabChart ([…]., & Mantilla, C. B. (2013). Novel method for transdiaphragmatic pressure measurements in mice. Respiratory Physiology & Neurobiology, 188, 56-59)

SMILES: O=C(/C=C/c1ccc(O)c(O)c1)O[C@H](Cc1ccc(O)c(O)c1)C(=O)O [Rosmarinic acid]
- expression of IgA (Immunoglobulin A (IgA)): increased
- Transdiaphragmatic pressure (Pdimax) (old C57b1/6 mice): increase

— patent US20250090614A1, “COMPOSITIONS AND METHODS FOR IMPROVING LUNG FUNCTION” (priority 2023, published 2025)
